# Patent publication US20050003383A1, “Linoleate isomerase” (Arkion Life Sciences LLC d/b/a Bio-Technical Resources …, priority 1999, published 2005)
# Read-outs that look alike come from different tables or passages of the source.
# B1: L. reuteri: (cis, trans)-9,11-linoleate isomerase from Lactobacillus reuteri PYR8, SEQ ID NO:18 (protein, listed as Lactobacillus reuteri)
# chain: MYYSNGNYEAFARPKKPAGVDKKHAYIVGGGLAGLSAAVFLIRDAQMPGENIHILEELPVAGGSLDGEDRPGIGFVTRGGREMENHFECMWDMYRSIPSLEIPGASYLDEYYWLDKEDPNSSNCRLTYKRGNEVPSDGKYGLSKKAIKELTKLIMTPEEKLGRETIGEYFSDDFFESNFWIYWSTMFAFERWHSLAEMRRYMMRFIHHIDGLPDFTALKFNKYNQYESMTKPLLAYLKDHHVKIEYDTQVKNVIVDTHGRQKHAKRILLTQAGKDKVVELTDNDLVFVTNGSITESSTYGSHHQAARPTQALGGSWKLWENLARQSADFGHPDVFCKNLPGRSWFISATATVKNPQVEPYIERLTKRDLHDGKVNTGGIITVTDSNWMLSWTIHRQPHFKKQKKNETIVWIYGLYSNTKGNYIKKRIVDCTGEEITKEWLSIWGFQKPLIDDLAKESSINTVPVYMPFITSYFMPRVKGDRPDVVPEGSANLAFIGNFAESPSRDTVFTTEYSVRTAMEAVYTLLDVDRGVPEVFNSIYDLRELMRAMYYMNDKKPLKDMDLPIPKIVEKPLLKKLQGTWIGELMEQQHLL
# Legend:
# [1] = target: P. acnes ATCC 6919 linoleate isomerase (Cutibacterium acnes, UniProt Q6A8X5); format: biochemical, Propionibacterium acnes
# Protocol: Formation of CLA was determined by measuring the absorbence at 234 nm. […] Generally, the isomerase was assayed using an endpoint assay after 30 to 60 minutes incubation at room temperature. FIG. 18 (time course assay at different linoleic acid levels) and FIG. 19 (end point assay at different linoleic acid levels) show the effect of increasing substrate concentration on formation of […].
# [2] = system: C. sporogenes ATCC 25762 linoleate isomerase; test: C. sporogenes isomerase activity and stability in extracts with additives; format: biochemical, Clostridium sporogenes; details: for effect of chelating agents on enzyme activity and stability: 1 mM; for effect on the stability of the isomerase: PMSF 0.1-1.0 mM, iodoacetamide 1 mM
# Protocol: Temperature sensitivity of the isomerase in crude extracts was tested at 4° C., room temperature (˜25° C.) and 37° C. […] The optimum pH was monitored by adjusting the pH from 5.0 to 9.0 using the 0.1M Tris buffer containing 10 mM NaCl, 1 mM DTT and 40 ppm linoleic acid.
# The concentration of linoleic acid was tested from 0 to 100 ppm (FIG. 26).
# Two different media, BHI and MRS, were tested. […] Protease inhibitors, PMSF (0.1-1.0 mM), iodoacetamide (1 mM) and pepstatin A were tested for their effects on the stability of the isomerase.
# It has been reported that solubilization in the presence of lysophosphatidylcholine (LPC) allows higher detergent concentrations to be used, thus allowing more complete membrane protein solubilization. CaCl2 can activate enzymes, such as some nucleases.
# L. reuteri PYR8 = test: Whole cell biotransformation of linoleic acid to CLA by L. reuteri PYR8; format: cell-based, Lactobacillus reuteri; details: for effect on (cis,trans)-9,11-CLA formation: nonionic detergent added
# Protocol: Cultures were grown and harvested as described above. Washed cells were resuspended in either fresh growth medium or 0.1 M Tris pH 8.0 buffer containing linoleic acid at various concentrations.
# Samples were taken at appropriate intervals and analyzed for CLA as described in Example 2. In some experiments, various detergents were added to 0.1-0.5% final concentration. […] About 5 mL solvent was added to about 20 mL aqueous cell suspension in a 125 mL baffled shake flask incubated at room temperature.
# Whole cells of L. reuteri PYR8 were used in all biotransformation experiments described below.
# The effect of substrate and product on the enzyme performance was also investigated, as well as the possibility of recycling the cells. The effect of CLA on the reaction was studied by adding different concentrations of either a mixture of isomers (Sigma material, approximately 41% 9,11 isomer and 48% 10,12 CLA), or just 9,11 CLA (Matreya material, approximately 77% 9,11 CLA). Concentrations from 500 to 3000 ppm were tested. Some experiments were also performed recycling the broth from a previous biotransformation reaction with L. reuteri PYR8, resulting in an initial CLA concentration around 700 ppm. In every case, 1000 ppm linoleic acid were added.
# In the second experiment, cell recycle was studied with cells that have performed the biotransformation at different levels of linoleic acid. Cells were harvested, resuspended in breakage buffer at a 10-fold concentration, and linoleic acid was added at 1000, 1500, 2000, 2500 and 3000 ppm level. Given the higher linoleic acid concentration, the reaction was allowed to proceed for six hours. […] 1000 ppm linoleic acid were added and the reaction was followed for four hours.
# [3] = cited from earlier work
# [4] = system: linoleate isomerase from Clostridium sporogenes; test: C. sporogenes linoleate isomerase kinetic assay, absorbence at 234 nm, partially purified enzyme; format: biochemical; details: for substrate has an inhibitory effect at concentrations above: substrate concentration dependency of isomerization
# Protocol: In this experiment, all kinetic experiments were performed in a quartz cuvette (1-cm light-path with a magnetic stirrer) at room temperature using a HP 8452A diode array spectrophotometer. The cuvette was filled with 1 ml of incubation buffer containing 50 μg protein, 0.1 M potassium phosphate, pH7.5, 10 mM NaCl and 10% 1,2-propane diol. The isomerization was initiated by adding a small aliquot (1-2 μl) of freshly diluted substrate-stock (˜[…] linoleic acid) in 1,2-propane diol at 50 seconds. The increase in absorbence at 234 nm was monitored and recorded. […] The amount of product formed was calculated based on a molar extinction coefficient of 24,000.
# [5] = system: L. reuteri PYR8 linoleate isomerase; test: L. reuteri PYR8 linoleate isomerase kinetic assay; format: biochemical, Lactobacillus reuteri
# Protocol: Linoleic isomerase activity was assayed either via CLA quantification by gas chromatography as described in Example 2 or by spectrophotometry. The enzyme assay was carried out in 0.1 M Tris buffer pH 7.5, 10 mM NaCl, 1 mM dithiothreitol, with linoleic acid at 20 parts per million (ppm), unless otherwise noted.
# About 50 to about 250 μL of enzyme sample was added to 1.5 mL of enzyme assay buffer for reaction. About 1 to about 2 mL of aqueous phase was separated from the enzyme reaction and was extracted with about 3 mL of hexane. In some experiments, and with chromatography fractions containing detergent, 0.5 mL of methanol and 0.5 mL of 5 M NaCl solution were first added to enhance phase separation. The organic layer was separated and the absorbence at 234 nm was measured using a HP 8452A diode array spectrophotometer. Depending on the level of activity, assay mixtures of chromatography fractions were incubated at room temperature from about 1 to about 24 hours before extraction with hexane.
# Kinetic assays were performed directly in a 0.5 mL quartz cuvette at room temperature and were continuously monitored at 234 nm. Reactions were initiated by addition of linoleic acid from a concentrated stock prepared in 1,2-propane diol. Reaction buffer was the same as above except it contained 10% 1,2-propane diol.
# [6] = system: B. fibrisolvens A-38 linoleate isomerase; details: cited from earlier work; for Km / Vmax: compound as substrate, Kepler and Tove (1967)
# [7] = Linoleate isomerase characterization (Table 7B), enzymes compared on linoleic acid; format: biochemical
# Protocol: Table 7B is a summary of the kinetic data and characterization of linoleate isomerases from P. acnes (crude extract prior to DEAE purification as in Example 11, except that the Vmax was determined using enzyme purified through the chromatofocusing step as in Example 11), L. reuteri (enzyme purified through the gel filtration step as in Example 3), and C. sporogenes (enzyme purified through the gel filtration step as in Example 17), all isolated by the present inventors, and the B. fibrisolvens A-38 linoleate isomerase (crude extract; Kepler and Tove, 1967, J. Biochem. 242:5686-5692). The substrate in these experiments was linoleic acid.
# [8] = compound as substrate at 10 PPM, activity with linoleic acid set as 100%
# [9] = compound as substrate, read-out: Km
# [10] = pH of about 7.5, about 20° C., read-out: Km for linoleic acid
# [11] = substrate linoleic acid, purified enzyme
# Chain of P. acnes ATCC 6919 linoleate isomerase (Q6A8X5 entry or part of it): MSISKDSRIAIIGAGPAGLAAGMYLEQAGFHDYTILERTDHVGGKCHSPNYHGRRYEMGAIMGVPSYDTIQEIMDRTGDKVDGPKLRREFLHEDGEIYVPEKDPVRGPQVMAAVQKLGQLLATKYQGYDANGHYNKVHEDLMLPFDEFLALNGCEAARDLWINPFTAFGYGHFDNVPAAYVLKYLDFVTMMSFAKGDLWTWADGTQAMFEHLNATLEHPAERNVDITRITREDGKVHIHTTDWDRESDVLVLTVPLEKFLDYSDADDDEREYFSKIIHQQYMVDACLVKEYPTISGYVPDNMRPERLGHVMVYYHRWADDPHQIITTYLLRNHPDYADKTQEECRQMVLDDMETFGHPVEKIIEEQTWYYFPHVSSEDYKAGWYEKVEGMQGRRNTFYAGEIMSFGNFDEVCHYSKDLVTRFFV
molecule,measurement,setting,value
"c1cnc2c(c1)ccc1cccnc12 [1,10-phenanthroline]",inhibition of isomerase activity,"[1]; EDTA 5 mM, 1,10-phenanthroline 1 mM, p-chloromercuribenzoate 5 μM, N-ethylmaleimide 100 μM",not inhibited
same,effect of chelating agents on enzyme activity and stability,[2]; crude extracts,protected
[Ca+2].[Cl-].[Cl-] [CaCl2],effect on enzyme activity,[2]; Tris and phosphate buffer systems,decreased the enzyme activity
O=C(O)CN(CCN(CC(=O)O)CC(=O)O)CC(=O)O [EDTA],effect of chelating agents on enzyme activity and stability,[2]; crude extracts,negative effect
O=S(=O)(F)Cc1ccccc1 [PMSF],effect on the stability of the isomerase,[2],None provided measurable benefit
CCCCCCCC/C=C\CCCCCCCC(=O)OCCOCC(OCCO)C1OCC(OCCO)C1OCCO (centres unmarked) [Tween-80],"effect on (cis,trans)-9,11-CLA formation",L. reuteri PYR8,does not significantly increase
CCCCCCCCCCCCCCCC [hexadecane],log P,[3],8.6
NC(=O)CI [iodoacetamide],effect on the stability of the isomerase,[2],None provided measurable benefit
"CCCCC/C=C\C/C=C\CCCCCCCC(=O)O [linoleic acid, (cis, cis)-9, 12-octadecadienoic acid]",maximal velocity (Vmax),[4]; Lineweaver-Burke plot,350 μmol CLA/min/mg protein
same,Km,"[4]; Lineweaver-Burke plot, read-out: Km",11.3 µM
same,Vmax,[4]; compound as substrate,350 nmole/min/mg protein
same,RELATIVE ACTIVITY %,[4]; [8],100%
same,Km,[4]; [9],11.3 µM
same,Km,[4]; [10],≥ 11.3 µM
same,substrate has an inhibitory effect at concentrations above,[4],above 20 μM
same,Vmax,[5]; compound as substrate,880 nmole/min/mg protein
same,Km,[5]; [9],8.1 µM
same,Km,[5]; [10],≥ 8.1 µM
same,Km,[1]; [10],≥ 17.2 µM
same,substrate inhibition,"L. reuteri PYR8; up to 3000 ppm linoleic acid, cells with good activity",no substrate inhibition was detected
same,optimum concentration for linoleic acid,"[2]; tested from 0 to 100 ppm, crude extracts",40 ppm
same,Km,[6],12 µM
same,Vmax,[6],55 nmole/min/mg protein
"CC/C=C\C/C=C\C/C=C\CCCCCCCC(=O)O [linolenic acid, (cis, cis, cis)-9, 12, 15 octadecatrienoic acid]",Vmax,[4]; compound as substrate,811 nmole/min/mg protein
same,RELATIVE ACTIVITY %,[4]; [8],84%
same,Km,[4]; [9],22.5 µM
same,substrate has an inhibitory effect at concentrations above,[4],> 40 µM
same,Km,[6],23 µM
same,Vmax,[6],130 nmole/min/mg protein
"CCCCCCCC/C=C\CCCCCCCC(=O)O [oleic acid, (cis)-9 octadecenoic acid]",type of inhibition,"[4]; 0, 24 and 48 μM oleic acid, varied linoleic acid, Lineweaver-Burke and Hanes-Woolf plots",uncompetitive inhibitor
same,isomerase activity in the presence of inhibitor,[4]; 70 μM oleic acid (20 PPM),almost completely lost
same,RELATIVE ACTIVITY %,"[4]; compound added at 35 μM, substrate LA 35 μM, pH 7.5, LA alone = 100%",25%
same,RELATIVE ACTIVITY %,[4]; [8],0%
same,Ki,"[4]; inhibition of linoleic acid isomerization, calculated from secondary plots, read-out: inhibition constants (Ki)",23.8 µM
same,type of inhibition,[6]; reported by Kepler and Tove,competitive inhibition
Triton X-100,"effect on (cis,trans)-9,11-CLA formation",L. reuteri PYR8,does not significantly increase
pepstatin A,effect on the stability of the isomerase,[2],None provided measurable benefit
B1,CLA Isomer,[7]; CLA isomer produced from linoleic acid,"9,11"
same,Optimal pH,[7]; substrate linoleic acid,7.5
same,Km,[7]; [11],8.1 µM
same,Vmax,[7]; [11],880^5 nmol/min/mg
